Results: patent publication US6451356B1, “Antibacterial composition comprising oenostacin from oenothera biennis” (Council of Scientific and Industrial Research, priority 2000, dated 2002)
Values after ≈ are worked out from the molar mass of the structure shown. Read-outs that look alike come from different tables or passages of the source.

What was measured:
Assay type in all cases: cell-based
[1] = system: Staphylococcus epidermidis; test: MIC by two-fold broth dilution, S. epidermidis; set-up: Minimal inhibitory concentration (MIC) S. epidermidis: unit not given here
Experimental: CIM 791 is tested for its minimal inhibitory concentration, which is a measure of the growth inhibitory potential of the compound and determined against S. epidermidis by two-fold broth dilution technique.
(§1) In order to identify the antibacterial chemical entities present in the EtOAc fraction 3 and 4 of O.biennis roots, the fractions are further run on silica gel column chromatography again eluting with varying proportions of chloroform and MeOH. Aliquots of eluate are run on TLC to check for the desired purity of the compound. The pure compounds thus obtained are analyzed for their antibacterial properties by two-fold broth dilution method to determine the minimal inhibitory concentration (MIC). […] The compounds CIM791 and 790 are identified as 3,5-dihydroxy-4-pent-4′-enoyl-1′-oxymethylbenzoic acid (Oenostacin) and gallic acid, respectively, using NMR spectral data.

Streptococcus mutans = test: MIC by two-fold broth dilution, S. mutans
Experimental: as §1

Pseudomonas aeruginosa = test: MIC by two-fold broth dilution, P. aeruginosa; settings: Table 5, read-out: Minimal inhibitory concentration (MIC) P. aeruginosa
Experimental: as §1

| SMILES | activity against Staphylococcus epidermidis (in words) [1] | MIC ([1]; Staphylococcus epidermidis, read-out: MIC against Staphylococcus epidermidis) | Minimal inhibitory concentration (MIC) S. epidermidis ([1]; Table 5) | MIC (Streptococcus mutans; Table 5, read-out: Minimal inhibitory concentration (MIC) S. mutans) | MIC (Pseudomonas aeruginosa) | MIC (Streptococcus mutans; read-out: MIC against Streptococcus mutans) |
| --- | --- | --- | --- | --- | --- | --- |
| COC(=O)CC/C=C/c1c(O)cc(C(=O)O)cc1O [Oenostacin, 3,5-dihydroxy-4-pent-4′-enoyl-1′-oxymethylbenzoic acid] | strong activity | 31.5 mg/L (≈ 0.118 mM) | 31.5 | 1250 mg/L (≈ 4.69 mM) |  |  |
| O=C(O)c1cc(O)c(O)c(O)c1 [Gallic acid, gallic acid] |  |  |  |  | 1250 mg/L (≈ 7.35 mM) | 625 mg/L (≈ 3.67 mM) |
